{"source": "patent US20100291706A1", "about": "“DYE CONJUGATES AND METHODS OF USE” (Millipore Corporation, priority 2009, published 2010)", "experiment": "Absorbance spectra of cyanine dye stocks", "type": "physicochemical", "settings": "free dye", "experimental": "Phycoerythrin conjugates: NGyS, NGy7 and Gy5 dye stocks are resuspended, their absorbances determined and their concentrations calculated. Phycoerythrin (PE) aliquots (2 nmoles) are treated in 0.5 M sodium carbonate pH 9.0 for 1.5 hr at room temperature with: a) 1:15, 1:30, 1:50 or 1:80 fold molar excesses of NGyS; b) 1:15 or 1:30 fold molar excesses of NGy7; or c) 1:30 or 1:50 molar excesses of Gy5. After conjugation, each reaction mixture is loaded on a PD-10 column and eluted with PBS. Fractions containing protein are pooled together for each mixture. Absorbance and fluorescence spectra of the products are obtained and energy transfer efficiency assessed.\nStreptavidin conjugates: The concentration of a dye solution is determined through absorbance readings of appropriate dye dilutions. Streptavidin is treated with a molar excess (e.g., 20 fold excess) of dye in sodium carbonate buffer (pH 9.0) for one hour. After conjugation, the mixture is purified on a PD-10 column using PBS as an eluent buffer, and 0.5 mL fractions are collected. Major fractions containing the streptavidin-dye conjugate are pooled together and absorbance and emission spectra are acquired."}
{"compound": "CCN1C(=CC=CC=CC=CC2=[N+](CCCCCC(=O)O)c3ccc(S(=O)(=O)O)cc3C2(C)C)C(C)(C)c2cc(S(=O)(=O)[O-])ccc21", "note": "[Cy7]", "values": [{"measurement": "absorption maximum", "value": 751.8, "unit": "nm"}]}
